Results reported in article PMC3480435, “Identification, Expression and Activity Analyses of Five Novel Duck Beta-Defensins” (PLoS ONE, 2012).

Experiments:
[1] = system: DHV-1 strain Du/CH/LBJ/090809; settings: DHV-1 serially diluted, treated with equal volume of 300 µg/mL protein in PBS, 37°C 60 min; 11-day-old SPF duck embryos, observed 7 days; three independent experiments, five replicates
Procedure: Briefly, the DHV-1 (10^8 median embryo infectious doses, EID50) was serially diluted 10-fold and treated with equal volumes of GST or rAvBDs (300 µg/mL in PBS) at 37°C for 60 min. The mixture was inoculated into 11-day-old specific pathogen free (SPF) duck embryos, with 200 µL administered per duck. The inoculated duck embryos were incubated at 37°C and observed for 7 days. Mortality was recorded every 8 h. […] All antiviral activity assays were performed in three independent experiments, with five replicates per experiment.

[2] = system: 12 bacteria (four Gram-positive and eight Gram-negative strains); settings: colony counting, 10-100 µg/mL in PBS, 3 h preincubation then 12-18 h; % of CFU of unexposed bacteria; mean of three independent experiments, three replicates each; Fig. 3
Procedure: The antimicrobial activities of both rAvBD and sAvBD were determined by colony counting assay. Briefly, a 10 µL of diluted bacterial culture (diluted 1000-fold in the appropriate medium) was treated with 250 µL of rAvBD or sAvBD (0 to 100 µg/mL in PBS) in polypropylene microtiter plates and preincubated for 3 h at conditions suited to the investigated strain; 100 µL of minimal medium was added after 3 h and the plates were incubated for 12–18 h further. Then, the sample was rediluted 100-to-10^6-fold in minimal medium, transferred to TSA plates and colonies were counted after 24 h of incubation. Bactericidal activity was calculated as a percentage of CFU of bacteria not exposed to antimicrobial peptides but subjected to the same experimental conditions. Results from the antimicrobial assay represent the mean of the three independent experiments, with three replicates per experiment.

In the case of glutathione-S-transferase [GST], the “survival time of duck embryos inoculated with treated DHV” value [1] is reported as “little effect” and the “bactericidal activity against all of the bacterial strains investigated” value [2] is reported as “no bactericidal activity”.
